Measured values: publication PMC7413516, “Antidepressant-like activity and safety profile evaluation of 1H-imidazo[2,1-f]purine-2,4(3H,8H)-dione derivatives as 5-HT1A receptor partial agonists” (PLoS ONE, 2020)
“And” between values parts separate entries of the source, which are not always exact repeats. Identical values can stand only once. Like-named read-outs stand apart in the source and are kept apart here.

Experiment: Pharmacokinetic study in mice, plasma and brain structures, LC/MS/MS
Format: in vivo, Swiss albino mice
Settings: 0.625 mg/kg i.p.; for Kp: ratio of AUC values
Protocol: Blood samples from the Swiss albino mice were collected at 0 (pre-dose), 5, 15, 30, 60, 120, 240 and 480 min after a compound administration. The blood samples and brain structures were collected under general anesthesia induced by i.p. injection of 50 mg/kg ketamine plus 8 mg/kg xylazine. The blood samples were taken into heparinized tubes, immediately centrifuged at 1000 × g for 10 min, and plasma was collected. The plasma samples and brain structures were immediately frozen at -30°C and -80°C, respectively.
The plasma and tissue sample pretreatment procedure involved acetonitrile precipitation. A 5 μL aliquot of the IS working solution (100 ng/mL) was added to 50 μL of the collected mouse plasma sample, which was then vortex-mixed for 10 seconds. Thereafter, 200 μL of acetonitrile was added, vortexed during 20 min, and then centrifuged (1000 × g, 10 min). The supernatant (100 μL) was then transferred to insert placed in an autosampler vial, and a 10 μL volume of this was injected onto the HPLC column. Tissue samples were thawed before use, and whole hippocampus, striatum and frontal cortex were weighted and placed in a glass mortar and pestle tissue grinder and homogenized with an appropriate amount of phosphate buffer (pH 7.4) in 1:5 ratio. Afterward, 50 μL of tissue homogenates were transferred to new Eppendorf tubes and spiked with 5 μL of the internal standard working solution. All samples were stored on ice during the preparation process. This was followed by procedures like those described above.
The LC/ESI-MS/MS experiments were performed on an Applied Biosystems/MDS Sciex (Concord, Ontario, Canada) API 2000 triple quadrupole mass spectrometer equipped with an electrospray (ESI) ionization interface. This instrument was coupled to an Agilent 1100 (Agilent Technologies, Waldbronn, Germany) LC system. Data acquisition and processing were accomplished using Sciex Analyst 1.4.2 data collection and integration software.
An XBridge C18 (2.1 x 30 mm, 3.5 μm) analytical column (Waters, Milford, Massachusetts, USA) was used for compound separation. The temperatures of the column thermostat and the autosampler were set at 25°C and 10°C, respectively. The mobile phase consisted of a mixture of acetonitrile with addition of 0.1% formic acid (solvent A) and water with addition of 0.1% formic acid (solvent B) and was set at a flow rate of 0.6 mL/min. Starting amount of solvent A is 10%, isocratic elution from 0 to 3 min, and then gradient up to 90% of solvent A, and maintained to 10 min, and then gradient down to 10% of solvent A, and maintained to 15 min.
The ion source parameters were as follows: ion spray voltage: 5500 V; nebulizer gas (gas 1): 20 psi; turbo gas (gas 2): 25 psi; temperature of the heated nebulizer: 400°C; curtain gas: 40 psi; collision gas: 6 psi. Mass spectra were acquired by SRM with precursor/predominant product ion transitions for each analyte. The mass spectral Q1→Q3 transitions monitored for AZ-853, AZ-861 and for IS (nebivolol), were m/z 453.9→235.1; 504.3→285.1 and 406.2→151.1, respectively. The peak widths of precursor and product ions were set to 0.7 full width half-height. Quantification was done via peak area ratio.
Pharmacokinetic parameters were calculated by a non-compartmental approach from the average concentration values, using Phoenix WinNonlin software (Certara, Princeton, NJ 08540 USA). First order elimination rate constant (λz) was calculated by linear regression of time versus log concentration. Next, the area under the mean serum and tissue concentration versus time curve (AUC0→t) was estimated using the log-linear trapezoidal rule (1), where Ci is the plasma concentration measured at t1.
AUC0→t=∑i=1n((Ci+Ci+1)/2)∙(ti+1−ti). (1)
Area under the first-moment curve (AUMC0→t) was estimated by calculation of the total area under the first-moment curve using the Eq (2), where Ci is the plasma concentration measured at t1. AUMC0→t=∑i=1n((ti∙Ci+ti+1∙Ci+1)/2)∙(ti+1−ti). […]

[1] = Swiss albino, mouse, frontal cortex, ip, 0.625 mg/kg, read-out: Concentration, frontal cortex (Mean)
[2] = Swiss albino, mouse, frontal cortex, ip, 0.625 mg/kg, read-out: Concentration, frontal cortex (individual animals)

t0.5: ca. 1.5 h | t0.5, frontal cortex: 73.8 min | t0.5, hippocampus: 140.8 min | t0.5, striatum: 74.3 min | Cmax, plasma (0.625 mg/kg): 23.1 ng/mL | t0.5, plasma (0.625 mg/kg): 81 min and 81.6 min | Kp (Swiss albino, mouse, frontal cortex, ip, read-out: Brain structure-to-plasma concentration ratio, frontal cortex (FC/P)): 18.1 | AUC(0-t) (Swiss albino, mouse, frontal cortex, ip, read-out: AUC0→t, frontal cortex (converted)): 321 ng·h/mL | MRT (Swiss albino, mouse, frontal cortex, ip, read-out: MRT, frontal cortex (converted)): 1.5 h | concentration at 5 min [1]: 306 ng/mL | concentration at 5 min [2]: 268 ng/mL | concentration at 15 min (Swiss albino, mouse, frontal cortex, ip, 0.625 mg/kg, 15 min, read-out: Concentration, frontal cortex (Mean)): 293 ng/mL | concentration at 15 min (Swiss albino, mouse, frontal cortex, ip, 0.625 mg/kg, 15 min, read-out: Concentration, frontal cortex (individual animals)): 318 ng/mL | concentration at 30 min (Swiss albino, mouse, frontal cortex, ip, 0.625 mg/kg, 30 min, read-out: Concentration, frontal cortex (Mean)): 156 ng/mL | concentration at 30 min (Swiss albino, mouse, frontal cortex, ip, 0.625 mg/kg, 30 min, read-out: Concentration, frontal cortex (individual animals)): 165 ng/mL | concentration at 60 min (Swiss albino, mouse, frontal cortex, ip, 0.625 mg/kg, 60 min, read-out: Concentration, frontal cortex (Mean)): 66 ng/mL | concentration at 60 min (Swiss albino, mouse, frontal cortex, ip, 0.625 mg/kg, 60 min, read-out: Concentration, frontal cortex (individual animals)): 56.3 ng/mL | concentration at 120 min (Swiss albino, mouse, frontal cortex, ip, 0.625 mg/kg, 120 min, read-out: Concentration, frontal cortex (Mean)): 27.5 ng/mL | concentration at 120 min (Swiss albino, mouse, frontal cortex, ip, 0.625 mg/kg, 120 min, read-out: Concentration, frontal cortex (individual animals)): 22.2 ng/mL | concentration at 240 min (Swiss albino, mouse, frontal cortex, ip, 0.625 mg/kg, 240 min, read-out: Concentration, frontal cortex (Mean)): 23.3 ng/mL | concentration at 240 min (Swiss albino, mouse, frontal cortex, ip, 0.625 mg/kg, 240 min, read-out: Concentration, frontal cortex (individual animals)): 20.8 ng/mL | concentration at 480 min [1]: 14.6 ng/mL | concentration at 480 min [2]: 18.6 ng/mL | Cmax (Swiss albino, mouse, frontal cortex, ip, 0.625 mg/kg, read-out: Cmax, frontal cortex): 306 ng/g | Tmax (Swiss albino, mouse, frontal cortex, ip, 0.625 mg/kg, read-out: tmax, frontal cortex (converted)): 5 min | Kp (Swiss albino, mouse, hippocampus, ip, read-out: Brain structure-to-plasma concentration ratio, hippocampus (H/P)): 11.9 | AUC(0-t) (Swiss albino, mouse, hippocampus, ip, read-out: AUC0→t, hippocampus (converted)): 210 ng·h/mL | MRT (Swiss albino, mouse, hippocampus, ip, read-out: MRT, hippocampus (converted)): 1.19 h | concentration at 5 min (Swiss albino, mouse, hippocampus, ip, 0.625 mg/kg, read-out: Concentration, hippocampus (Mean)): 191 ng/mL
Compound: Cn1c(=O)c2c(nc3n(CCCCN4CCN(c5ccccc5F)CC4)ccn23)n(C)c1=O [AZ-853, 8-(4-(4-(2-fluorophenyl)piperazin-1-yl)butyl)-1,3-dimethyl-1H-imidazo[2,1-f]purine-2,4(3H,8H)-dione]
Concentration, frontal cortex (individual animals) (15 min, 0.625 mg/kg): 252.14 ng/mL and 309.85 ng/mL and 312.66 ng/mL and 273.19 ng/mL and 294.14 ng/mL | Concentration, hippocampus (individual animals) (15 min, 0.625 mg/kg): 298.87 ng/mL and 267.61 ng/mL and 299.52 ng/mL and 245.78 ng/mL and 289.53 ng/mL | Concentration, plasma (individual animals) (15 min, 0.625 mg/kg): 13.52 ng/mL and 11.72 ng/mL and 14.74 ng/mL and 12.63 ng/mL and 15.85 ng/mL | Concentration, striatum (individual animals) (15 min, 0.625 mg/kg): 445.83 ng/mL and 472.52 ng/mL and 361.97 ng/mL and 346.18 ng/mL and 398.36 ng/mL | Concentration, frontal cortex (individual animals) (30 min, 0.625 mg/kg): 130.57 ng/mL and 174.17 ng/mL and 183.87 ng/mL and 124.72 ng/mL and 156.16 ng/mL | Concentration, hippocampus (individual animals) (30 min, 0.625 mg/kg): 132.11 ng/mL and 120.56 ng/mL and 144.33 ng/mL and 115.85 ng/mL and 113.92 ng/mL | Concentration, plasma (individual animals) (30 min, 0.625 mg/kg): 7.23 ng/mL and 6.19 ng/mL and 8.12 ng/mL and 7.41 ng/mL and 8.48 ng/mL | Concentration, striatum (individual animals) (30 min, 0.625 mg/kg): 208.14 ng/mL and 240.54 ng/mL and 302.57 ng/mL and 256.75 ng/mL and 253.77 ng/mL | Concentration, frontal cortex (individual animals) (60 min, 0.625 mg/kg): 87.55 ng/mL and 56.45 ng/mL and 81.65 ng/mL and 55.78 ng/mL and 58.24 ng/mL | Concentration, hippocampus (individual animals) (60 min, 0.625 mg/kg): 35.33 ng/mL and 56.52 ng/mL and 54.16 ng/mL and 46.72 ng/mL and 33.91 ng/mL | Concentration, plasma (individual animals) (60 min, 0.625 mg/kg): 2.33 ng/mL and 1.80 ng/mL and 1.95 ng/mL and 1.94 ng/mL and 1.84 ng/mL and 0.83 ng/mL | Concentration, striatum (individual animals) (60 min, 0.625 mg/kg): 49.55 ng/mL and 56.86 ng/mL and 68.93 ng/mL and 73.14 ng/mL and 66.26 ng/mL | Concentration, frontal cortex (individual animals) (120 min, 0.625 mg/kg): 32.55 ng/mL and 33.75 ng/mL and 20.15 ng/mL and 30.26 ng/mL and 26.34 ng/mL | Concentration, hippocampus (individual animals) (120 min, 0.625 mg/kg): 15.62 ng/mL and 13.22 ng/mL and 11.37 ng/mL and 10.24 ng/mL and 11.13 ng/mL | Concentration, plasma (individual animals) (120 min, 0.625 mg/kg): 4.86 ng/mL and 4.58 ng/mL and 4.97 ng/mL and 3.54 ng/mL and 3.31 ng/mL | Concentration, striatum (individual animals) (120 min, 0.625 mg/kg): 39.45 ng/mL and 31.62 ng/mL and 38.75 ng/mL and 47.66 ng/mL and 39.13 ng/mL | Concentration, frontal cortex (individual animals) (240 min, 0.625 mg/kg): 24.26 ng/mL and 26.65 ng/mL and 19.77 ng/mL and 20.56 ng/mL | Concentration, hippocampus (individual animals) (240 min, 0.625 mg/kg): 6.95 ng/mL and 9.12 ng/mL and 10.23 ng/mL and 6.87 ng/mL | Concentration, plasma (individual animals) (240 min, 0.625 mg/kg): 0.37 ng/mL and 0.35 ng/mL and 0.45 ng/mL and 0.53 ng/mL and 0.33 ng/mL and 0.26 ng/mL | Concentration, striatum (individual animals) (240 min, 0.625 mg/kg): 2.35 ng/mL and 3.41 ng/mL and 6.93 ng/mL and 8.25 ng/mL and 6.34 ng/mL
